Laboratory results taken from patent US9586961B2, “Homopiperazine derivatives as protein tyrosine kinase inhibitors and pharmaceutical use thereof” (LEO PHARMA A/S, priority 2010, dated 2017).

What was measured:
Type in all cases: biochemical
JAK3 = target: T1, JAK3 (Homo sapiens, UniProt P52333); experiment: JAK3 kinase assay (HTRF, inhibition of phosphorylation of a synthetic peptide); conditions: catalytic domain, His-tag; 2 μM ATP (Km); read-out: JAK3 kinase inhibitory activity (EC50)
T1 construct: All four purified enzymes contain only the catalytic domain; His (N); purchased Carna Biosciences, Inc; host or cells: baculovirus expression system
T1 sequence (P52333 822-1111 limits assumed): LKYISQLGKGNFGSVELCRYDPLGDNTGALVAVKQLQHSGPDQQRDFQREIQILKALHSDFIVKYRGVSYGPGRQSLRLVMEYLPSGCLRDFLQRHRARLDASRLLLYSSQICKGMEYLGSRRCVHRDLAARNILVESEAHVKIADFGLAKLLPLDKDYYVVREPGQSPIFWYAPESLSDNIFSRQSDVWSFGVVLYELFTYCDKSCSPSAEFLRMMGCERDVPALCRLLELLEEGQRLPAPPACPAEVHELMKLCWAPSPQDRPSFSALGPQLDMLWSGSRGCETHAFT
Method: (§1) JAK1, JAK2, JAK3 and TYK2 Kinase Assays:
(§2) Human baculovirus-expressed JAK1, 2, 3 and TYK2 were purchased from Carna Biosciences, Inc. All four purified enzymes contain only the catalytic domain. JAK1 (aa 850-1154) and TYK2 (aa 871-1187) are expressed with an N-terminally fused GST-tag, and JAK2 and JAK3 with an N-terminally fused His-tag. Inhibition of phosphorylation of a synthetic peptide was measured in an HTRF-based assay using the TK substrate-Biotin from the CisbioHTRFKinEASE TK kit. First, 2 μl of TK solution (TK substrate-biotin in kinase buffer [1× enzymatic buffer from HTRFKinEASE TK kit, 1 mM DTT]) is added to a plate containing 1 μl prediluted compound (final assay concentration DMSO: 0.75%). Then, 5 μl kinase-ATP mix (prepared in kinase buffer) is added to the wells and the plates are incubated at RT for 20-30 min. For all four kinases a concentration of ATP that corresponded to the Km for ATP was used. The final concentrations of buffers, substrate, kinase and ATP were: JAK1: 50 mMHepes buffer pH 7.0, 0.01% BSA, 10 mM MgCl2, 1 mM DTT, 7 μM ATP, 50 nMSEB, 1 μM TK Substrate-Biotin and 5 ng JAK1; JAK2: 50 mM Hepes buffer pH 7.0, 0.01% BSA, 5 mM MgCl2, 1 mM DTT, 4 μM ATP, 1 μM TK Substrate-Biotin and 0.1 ng JAK2; JAK3: 50 mMHepes buffer pH 7.0, 0.01% BSA, 5 mM MgCl2, 1 mM DTT, 2 μM ATP, 1 μM TK Substrate-Biotin and 0.3 ng JAK3; TYK2: 50 mMHepes buffer pH 7.0, 0.01% BSA, 5 mM MgCl2, 1 mM DTT, 13 μM ATP, 50 nMSEB, 1 μM TK Substrate-Biotin and 0.8 ng TYK2. Thereafter, the kinase reaction is stopped by adding 4 μl detection mix (final concentrations: 50 mM Hepes buffer pH 7.0, 0.01% BSA, 0.8 M KF, 20 mM EDTA, 42 nM Streptavidin-XL665 and 1:400 STKAbCryptate) and the plates are incubated overnight in the dark. The HTRF signal is read using an Envision plate reader.

JAK1 = target: T2, JAK1 (Homo sapiens, UniProt P23458); experiment: JAK1 kinase assay (HTRF, inhibition of phosphorylation of a synthetic peptide); conditions: catalytic domain aa 850-1154, GST-tag; 7 μM ATP (Km); read-out: JAK1 kinase inhibitory activity (EC50)
T2 construct: JAK1 (aa 850-1154) and TYK2 (aa 871-1187) are expressed with an N-terminally fused GST-tag; GST (N); purchased Carna Biosciences, Inc; host or cells: baculovirus expression system
T2 sequence (P23458 850-1154): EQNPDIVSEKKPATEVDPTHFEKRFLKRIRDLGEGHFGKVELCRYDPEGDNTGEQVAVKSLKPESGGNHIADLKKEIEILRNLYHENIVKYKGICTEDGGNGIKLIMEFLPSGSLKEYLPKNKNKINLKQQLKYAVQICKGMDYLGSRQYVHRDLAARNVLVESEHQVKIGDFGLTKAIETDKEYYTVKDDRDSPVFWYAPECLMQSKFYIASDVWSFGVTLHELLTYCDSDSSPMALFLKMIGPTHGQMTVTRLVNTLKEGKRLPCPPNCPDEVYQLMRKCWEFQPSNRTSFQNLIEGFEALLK
Method: as §1, §2

JAK2 = target: T3, JAK2 (Homo sapiens, UniProt O60674); experiment: JAK2 kinase assay (HTRF, inhibition of phosphorylation of a synthetic peptide); conditions: catalytic domain, His-tag; 4 μM ATP (Km); read-out: JAK2 kinase inhibitory activity (EC50)
T3 construct: All four purified enzymes contain only the catalytic domain; His (N); purchased Carna Biosciences, Inc; host or cells: baculovirus expression system
T3 sequence (O60674 849-1124 limits assumed): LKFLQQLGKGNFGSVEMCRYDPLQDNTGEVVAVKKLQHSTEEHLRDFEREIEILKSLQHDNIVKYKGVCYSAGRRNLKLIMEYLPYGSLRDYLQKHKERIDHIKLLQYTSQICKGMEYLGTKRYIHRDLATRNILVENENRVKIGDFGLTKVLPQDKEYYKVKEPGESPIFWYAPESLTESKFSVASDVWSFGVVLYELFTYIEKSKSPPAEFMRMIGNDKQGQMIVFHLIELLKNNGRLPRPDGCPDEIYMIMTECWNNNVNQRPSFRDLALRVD
Method: as §1, §2

Row | Structure (SMILES) | EC50 (JAK3) [nM] | EC50 (JAK1) [nM] | EC50 (JAK2) [nM]
1 | CCCC1=NOC(C(=O)N2CCCN(c3ncnc4[nH]ccc34)CC23CC3)C1 (centres unmarked) [Example 124, (3-propyl-4,5-dihydroisoxazol-5-yl)-[5-(7H-pyrrolo[2,3-d]pyrimidin-4-yl)-5,9-diazaspiro[2.6]nonan-9-yl]methanone] | 100 to 1000 | 100 to 1000 | 100 to 1000
2 | O=C(c1ccncn1)N1CCCN(c2ncnc3[nH]ccc23)CC12CC2 [Example 166, pyrimidin-4-yl-[5-(7H-pyrrolo[2,3-d]pyrimidin-4-yl)-5,9-diazaspiro[2.6]nonan-9-yl]methanone] | 100 to 1000 | < 100 | < 100
3 | Cc1noc(C)c1CC(=O)N1CCN(c2ncnc3[nH]ccc23)CC2(CC2)C1 [Example 249, 2-(3,5-dimethylisoxazol-4-yl)-1-[5-(7H-pyrrolo[2,3-d]pyrimidin-4-yl)-5,8-diazaspiro[2.6]nonan-8-yl]ethanone] | > 1000 | 100 to 1000 | 100 to 1000
4 | O=C(c1ccc(O)nc1)N1CCCN(c2ncnc3[nH]ccc23)CC12CC2 [Example 132, (6-hydroxy-3-pyridyl)-[5-(7H-pyrrolo[2,3-d]pyrimidin-4-yl)-5,9-diazaspiro[2.6]nonan-9-yl]methanone] | 100 to 1000 | 100 to 1000 | 100 to 1000
5 | O=C(c1c[nH]nn1)N1CCN(c2ncnc3[nH]ccc23)CC2(CC2)C1 [Example 204, [5-(7H-pyrrolo[2,3-d]pyrimidin-4-yl)-5,8-diazaspiro[2.6]nonan-8-yl]-(1H-triazol-4-yl)methanone] | 100 to 1000 | 100 to 1000 | 100 to 1000
6 | Cc1noc(C)c1C(=O)N1CCCN(c2ncnc3[nH]ccc23)CC12CC2 [Example 199, (3,5-dimethylisoxazol-4-yl)-[5-(7H-pyrrolo[2,3-d]pyrimidin-4-yl)-5,9-diazaspiro[2.6]nonan-9-yl]methanone] | > 1000 | > 1000 | > 1000
7 | Cc1nnsc1C(=O)N1CCN(c2ncnc3[nH]ccc23)CC2(CC2)C1 [Example 146, (4-methylthiadiazol-5-yl)-[5-(7H-pyrrolo[2,3-d]pyrimidin-4-yl)-5,8-diazaspiro[2.6]nonan-8-yl]methanone] | > 1000 | 100 to 1000 | 100 to 1000
8 | Cc1sncc1C(=O)N1CCN(c2ncnc3[nH]ccc23)CC2(CC2)C1 [Example 229, (5-methylisothiazol-4-yl)-[5-(7H-pyrrolo[2,3-d]pyrimidin-4-yl)-5,8-diazaspiro[2.6]nonan-8-yl]methanone] | > 1000 | 100 to 1000 | 100 to 1000
9 | O=C(Cc1ccccn1)N1CCN(c2ncnc3[nH]ccc23)CC2(CC2)C1 [Example 167, 2-(2-pyridyl)-1-[5-(7H-pyrrolo[2,3-d]pyrimidin-4-yl)-5,8-diazaspiro[2.6]nonan-8-yl]ethanone] | > 1000 | 100 to 1000 | 100 to 1000
10 | O=C(c1ccsn1)N1CCN(c2ncnc3[nH]ccc23)CC2(CC2)C1 [Example 200, isothiazol-3-yl-[5-(7H-pyrrolo[2,3-d]pyrimidin-4-yl)-5,8-diazaspiro[2.6]nonan-8-yl]methanone] | 100 to 1000 | 100 to 1000 | 100 to 1000
11 | Cc1ccccc1C(=O)N1CCCN(c2ncnc3[nH]ccc23)CC12CC2 [Example 110, o-tolyl-[5-(7H-pyrrolo[2,3-d]pyrimidin-4-yl)-5,9-diazaspiro[2.6]nonan-9-yl]methanone] | > 1000 | 100 to 1000 | 100 to 1000
12 | O=C(c1cccc(Cl)c1)N1CCCN(c2ncnc3[nH]ccc23)CC12CC2 [Example 179, (3-chlorophenyl)-[5-(7H-pyrrolo[2,3-d]pyrimidin-4-yl)-5,9-diazaspiro[2.6]nonan-9-yl]methanone] | 100 to 1000 | 100 to 1000 | < 100
13 | O=C(Cc1nnn[nH]1)N1CCCN(c2ncnc3[nH]ccc23)CC12CC2 [Example 226, 1-[5-(7H-pyrrolo[2,3-d]pyrimidin-4-yl)-5,9-diazaspiro[2.6]nonan-9-yl]-2-(1H-tetrazol-5-yl)ethanone] | > 1000 | > 1000 | 100 to 1000
14 | CN1CCN(CC(=O)N2CCN(c3ncnc4[nH]ccc34)CC3(CC3)C2)C1=O [Example 82, 1-methyl-3-[2-oxo-2-[5-(7H-pyrrolo[2,3-d]pyrimidin-4-yl)-5,8-diazaspiro[2.6]nonan-8-yl]ethyl]imidazolidin-2-one] | 100 to 1000 | 100 to 1000 | 100 to 1000
15 | Cc1cc(CC(=O)N2CCCN(c3ncnc4[nH]ccc34)CC23CC3)on1 [Example 217, 2-(3-methylisoxazol-5-yl)-1-[5-(7H-pyrrolo[2,3-d]pyrimidin-4-yl)-5,9-diazaspiro[2.6]nonan-9-yl]ethanone] | > 1000 | 100 to 1000 | 100 to 1000
16 | O=C(c1ccccn1)N1CCCN(c2ncnc3[nH]ccc23)CC12CC2 [Example 189, 2-pyridyl-[5-(7H-pyrrolo[2,3-d]pyrimidin-4-yl)-5,9-diazaspiro[2.6]nonan-9-yl]methanone] | > 1000 | 100 to 1000 | < 100
17 | O=C(c1cccc(O)n1)N1CCCN(c2ncnc3[nH]ccc23)CC12CC2 [Example 164, (6-hydroxy-2-pyridyl)-[5-(7H-pyrrolo[2,3-d]pyrimidin-4-yl)-5,9-diazaspiro[2.6]nonan-9-yl]methanone] | > 1000 | 100 to 1000 | 100 to 1000
18 | Cc1n[nH]c(CC(=O)N2CCN(c3ncnc4[nH]ccc34)CC3(CC3)C2)n1 [Example 250, 2-(3-methyl-1H-1,2,4-triazol-5-yl)-1-[5-(7H-pyrrolo[2,3-d]pyrimidin-4-yl)-5,8-diazaspiro[2.6]nonan-8-yl]ethanone] | 100 to 1000 | 100 to 1000 | 100 to 1000
19 | O=C(c1nc[nH]n1)N1CCN(c2ncnc3[nH]ccc23)CC2(CC2)C1 [Example 195, [5-(7H-pyrrolo[2,3-d]pyrimidin-4-yl)-5,8-diazaspiro[2.6]nonan-8-yl]-(1H-1,2,4-triazol-3-yl)methanone] | > 1000 | 100 to 1000 | 100 to 1000
20 | Cc1nccnc1C(=O)N1CCN(c2ncnc3[nH]ccc23)CC2(CC2)C1 [Example 168, (3-methylpyrazin-2-yl)-[5-(7H-pyrrolo[2,3-d]pyrimidin-4-yl)-5,8-diazaspiro[2.6]nonan-8-yl]methanone] | > 1000 | > 1000 | > 1000
21 | Cc1cc(C(=O)N2CCCN(c3ncnc4[nH]ccc34)CC23CC3)n[nH]1 [Example 149, (5-methyl-1H-pyrazol-3-yl)-[5-(7H-pyrrolo[2,3-d]pyrimidin-4-yl)-5,9-diazaspiro[2.6]nonan-9-yl]methanone] | > 1000 | 100 to 1000 | 100 to 1000
22 | O=C(c1c[nH]nn1)N1CCCN(c2ncnc3[nH]ccc23)CC12CC2 [Example 205, [5-(7H-pyrrolo[2,3-d]pyrimidin-4-yl)-5,9-diazaspiro[2.6]nonan-9-yl]-(1H-triazol-4-yl)methanone] | 100 to 1000 | 100 to 1000 | 100 to 1000
23 | Cn1cncc1C(=O)N1CCCN(c2ncnc3[nH]ccc23)CC12CC2 [Example 145, (3-methylimidazol-4-yl)-[5-(7H-pyrrolo[2,3-d]pyrimidin-4-yl)-5,9-diazaspiro[2.6]nonan-9-yl]methanone] | > 1000 | 100 to 1000 | 100 to 1000
24 | N#Cc1c[nH]c(C(=O)N2CCN(c3ncnc4[nH]ccc34)CC3(CC3)C2)c1 [Example 208, 5-[5-(7H-pyrrolo[2,3-d]pyrimidin-4-yl)-5,8-diazaspiro[2.6]nonane-8-carbonyl]-1H-pyrrole-3-carbonitrile] | 100 to 1000 | < 100 | < 100
25 | N#Cc1ccc(/C=C/C(=O)N2CCN(c3ncnc4[nH]ccc34)CC3(CC3)C2)cc1 [Example 117, 4-[(E)-3-oxo-3-[5-(7H-pyrrolo[2,3-d]pyrimidin-4-yl)-5,8-diazaspiro[2.6]nonan-8-yl]prop-1-enyl]benzonitrile] | – | 100 to 1000 | 100 to 1000
